Each block holds one molecule with its values, some of them ahead of it. Active and inactive are the calls of the source. The calls are words filed in the database; no cut-off is given here.
What was measured:
RAW264.7 [1] = assay: Cytotoxicity against mouse RAW264.7 cells assessed as cell viability at 50 uM after 24 hrs by MTT assay; type: cell-based; conditions: raw264.7, 24 h
RAW264.7 [2] = assay: Antiinflammatory activity in mouse RAW264.7 cells assessed as inhibition of LPS-induced COX2 promoter activity; type: functional, cell-based
RAW264.7 [3] = assay: Antiinflammatory activity in mouse RAW264.7 cells assessed as inhibition of LPS-induced COX2 production at 3 uM after 18 hrs by Western blot analysis; type: functional, cell-based
RAW264.7 [4] = assay: Antiinflammatory activity in mouse RAW264.7 cells assessed as inhibition of LPS-induced COX2 production after 18 hrs by Western blot analysis; type: functional, cell-based
RAW264.7 [5] = assay: Antiinflammatory activity in mouse RAW264.7 cells assessed as inhibition of LPS-induced iNOS promoter activity; type: functional, cell-based
RAW264.7 [6] = assay: Antiinflammatory activity in mouse RAW264.7 cells assessed as inhibition of LPS-induced iNOS production after 18 hrs by Western blot analysis; type: functional, cell-based
RAW264.7 [7] = assay: Antiinflammatory activity in mouse RAW264.7 cells assessed as inhibition of LPS-induced iNOS production at 1 uM after 18 hrs by Western blot analysis; type: functional, cell-based
RAW264.7 [8] = assay: Antiinflammatory activity in mouse RAW264.7 cells assessed as inhibition of LPS-induced nitric oxide production after 24 hrs by griess assay; type: functional, cell-based; conditions: RAW264.7, 24 h
RAW264.7 [9] = assay: Antiinflammatory activity in mouse RAW264.7 cells assessed as inhibition of LPS-induced iNOS production at 3 uM after 18 hrs by Western blot analysis; type: functional, cell-based

Compound: CN1c2c(ccc3cc4c(cc23)OCO4)-c2ccc3c(c2C1O)OCO3 (stereo not given)
Activity (RAW264.7 [1]): Non-toxic | inhibition (RAW264.7 [2]): Active | inhibition (RAW264.7 [3]): Active | inhibition (RAW264.7 [4]): Dose-dependent effect | inhibition (RAW264.7 [5]): Active | inhibition (RAW264.7 [6]): Dose-dependent effect | inhibition (RAW264.7 [7]): Active | IC50 (RAW264.7 [8]): 4.5 µM

Compound: COc1ccc2cc3[n+](cc2c1OC)CCc1cc2c(cc1-3)OCO2 [BERBERINE]
Activity (RAW264.7 [1]): Non-toxic | IC50 (RAW264.7 [8]): > 30 µM

Compound: CN1Cc2c(ccc3c2OCO3)[C@@H]2[C@H]1c1cc3c(cc1C[C@@H]2O)OCO3 [CHELIDONINE]
Activity (RAW264.7 [1]): Non-toxic | inhibition (RAW264.7 [2]): Active | inhibition (RAW264.7 [3]): Active | inhibition (RAW264.7 [4]): Dose-dependent effect | inhibition (RAW264.7 [5]): Active | inhibition (RAW264.7 [6]): Dose-dependent effect | inhibition (RAW264.7 [9]): Active | IC50 (RAW264.7 [8]): 7.3 µM

Compound: CN1CCc2cc3c(cc2C(=O)Cc2ccc4c(c2C1)OCO4)OCO3 [PROTOPINE]
Activity (RAW264.7 [1]): Non-toxic

Continued, in another order:

IC50 (RAW264.7 [8]): > 50 µM
Compound: COC(=O)CC1c2c(ccc3c2OCO3)-c2ccc3cc4c(cc3c2N1C)OCO4 (stereo not given)
Activity (RAW264.7 [1]): Non-toxic

IC50 (RAW264.7 [8]): 16.5 µM
Compound: O[C@@H]1Cc2cc3c(cc2[C@@H]2NCc4c(ccc5c4OCO5)[C@H]12)OCO3 [NORCHELIDONINE]
Activity (RAW264.7 [1]): Non-toxic

IC50 (RAW264.7 [8]): > 50 µM
Compound: c1cc2c(c3c1C[C@H]1c4cc5c(cc4CCN1C3)OCO5)OCO2 [STYLOPINE]
Activity (RAW264.7 [1]): Non-toxic
